What is called IC50 is the point on the concentration scale where inhibition reaches its midpoint.

One assay concerns the target T1, rMAO-A (Rattus norvegicus, UniProt P21396).
T1 construct: using a suspension of crude rat brain mitochondria as enzyme source; from tissue; host or cells: rat brain (crude mitochondrial suspension)
T1 sequence (P21396 1-526): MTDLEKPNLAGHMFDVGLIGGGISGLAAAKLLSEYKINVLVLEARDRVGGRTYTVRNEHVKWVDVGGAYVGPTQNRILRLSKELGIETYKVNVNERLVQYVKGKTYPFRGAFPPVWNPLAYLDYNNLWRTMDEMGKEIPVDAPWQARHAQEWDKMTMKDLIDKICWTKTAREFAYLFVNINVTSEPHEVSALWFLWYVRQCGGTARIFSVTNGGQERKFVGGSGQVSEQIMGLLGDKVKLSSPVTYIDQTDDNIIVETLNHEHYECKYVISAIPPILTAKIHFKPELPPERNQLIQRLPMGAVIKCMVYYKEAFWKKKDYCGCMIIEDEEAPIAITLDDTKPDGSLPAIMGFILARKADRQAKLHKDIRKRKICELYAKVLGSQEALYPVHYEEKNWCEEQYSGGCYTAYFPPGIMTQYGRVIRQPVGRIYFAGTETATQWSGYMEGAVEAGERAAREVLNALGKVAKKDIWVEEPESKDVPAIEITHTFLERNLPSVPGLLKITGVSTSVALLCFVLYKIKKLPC
As to the kind of experiment: Inhibition of rMAO-A in crude rat brain mitochondria (5-HT substrate, HPLC-ED). The format is biochemical. The conditions noted are these: substrate 5-HT. On the procedure:
(§1) Fourteen derivatives differing in the substitution pattern of the cinnamyl benzene ring were studied, these compounds were tested on rat MAO-A and B to determine their inhibitory activity MAO. A general screening was carried out at 10 µM finding moderate activity for some of the compounds against rMAO-B but none against rMAO-A. Thus, five molecules were identified as possibly selective IMAO-B.
(§2) The effect of coumarin derivatives on MAO-A and MAO-B were measured using a suspension of crude rat brain mitochondria as enzyme source. 4-Dimethylaminophenethylamine (4-DMAPEA, 2.5 µM) and 5-hydroxytryptamine (5-HT, […]) were used as substrates selective of MAO-B or MAO-A, respectively. Evaluation of the test compounds on rMAO activity was executed by measuring their effects on the production of 4-dimethylaminophenylacetic acid (DMAPAA) by rMAO-B and 5-hydroxyindoleacetic acid (5-HIAA) by rMAO-A with O2 using HPLC-ED (L-7110 LaChrom and amperometric detector L-3500 LaChrom Recipe, Hitachi, (Tokyo, Japan) (for more detail see methodological references). The IC50 values (average ± SD was measured in two independent experiments each in triplicate) were assessed representing percentage of inhibition in function of the negative logarithm of different inhibitor concentrations (10^−4 to 10^−8) using the GraphPad Prism software.

For the next assay, the target named is T2, rMAO-B (Rattus norvegicus, UniProt P19643).
T2 construct: using a suspension of crude rat brain mitochondria as enzyme source; from tissue; host or cells: rat brain (crude mitochondrial suspension)
T2 sequence (P19643 1-520): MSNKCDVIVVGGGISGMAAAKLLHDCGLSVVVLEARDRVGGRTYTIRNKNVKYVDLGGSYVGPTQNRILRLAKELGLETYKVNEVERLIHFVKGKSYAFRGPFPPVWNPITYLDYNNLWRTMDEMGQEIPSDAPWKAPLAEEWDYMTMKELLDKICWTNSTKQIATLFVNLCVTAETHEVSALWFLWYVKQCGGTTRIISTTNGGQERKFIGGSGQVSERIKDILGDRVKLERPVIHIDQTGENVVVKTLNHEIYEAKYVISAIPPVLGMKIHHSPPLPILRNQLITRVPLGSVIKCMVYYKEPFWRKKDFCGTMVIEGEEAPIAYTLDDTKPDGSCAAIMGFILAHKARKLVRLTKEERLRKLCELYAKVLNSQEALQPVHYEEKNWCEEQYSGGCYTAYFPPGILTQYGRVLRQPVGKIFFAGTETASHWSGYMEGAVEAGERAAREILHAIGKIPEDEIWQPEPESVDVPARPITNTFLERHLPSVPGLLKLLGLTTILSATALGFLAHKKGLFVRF
As to the kind of experiment: Inhibition of rMAO-B in crude rat brain mitochondria (4-DMAPEA substrate, HPLC-ED). Format: biochemical. The conditions noted are these: for IC50: crude rat brain mitochondria, substrate 4-DMAPEA 2.5 µM. On the procedure: as §1, §2

Entries after “also recorded” stand apart in the source; their conditions may differ.

Consider `COc1ccc2cc(C(=O)C=Cc3ccccc3)c(=O)oc2c1` [ChC1, 3-Cinnamoyl-7-methoxy-2H-chromen-2-one], for which the 50% inhibitory concentration (IC50) against rMAO-A and against rMAO-B was above 10 µM in each case.

Regarding `COc1ccc2cc(C(=O)/C=C/c3ccccc3O)c(=O)oc2c1` [ChC2, (E)-3-(3-(2-Hydroxyphenyl)acryloyl)-7-methoxy-2H-chromen-2-one], the IC50 against rMAO-A was above 10 µM. Besides, at rMAO-B, the “rMAO-B inhibitory activity in vitro (in words)” value is “loss of the inhibitory activity; also recorded: does not show in vitro activity” and the 50% inhibitory concentration (IC50) is above 10 µM.

For the molecule `COc1ccc2cc(C(=O)/C=C/c3ccccc3OC)c(=O)oc2c1` [ChC3, (E)-7-methoxy-3-(3-(2-methoxyphenyl)acryloyl)-2H-chromen-2-one], the IC50 against rMAO-A and against rMAO-B was above 10 µM throughout.

As for `COc1ccc2cc(C(=O)/C=C/c3cccc(O)c3)c(=O)oc2c1` [ChC4, (E)-3-(3-(3-hydroxyphenyl)acryloyl)-7-methoxy-2H-chromen-2-one], the IC50 was above 10 µM against rMAO-A and 0.76 ± 0.08 µM on rMAO-B.

Turning to `COc1cccc(/C=C/C(=O)c2cc3ccc(OC)cc3oc2=O)c1` [ChC5, (E)-7-methoxy-3-(3-(3-methoxyphenyl)acryloyl)-2H-chromen-2-one], the IC50 against rMAO-A was above 10 µM; against rMAO-B, 9.63 ± 0.9 µM. Also, the “Fold lower IMAO activity than ChC4” value at rMAO-B (rMAO-B, relative to ChC4) is given as “approximately 12 fold”.

On to `COc1ccc(/C=C/C(=O)c2cc3ccc(OC)cc3oc2=O)cc1` [ChC6, (E)-7-methoxy-3-(3-(4-methoxyphenyl)acryloyl)-2H-chromen-2-one], for which the IC50 at rMAO-A is above 10 µM; at rMAO-B, 6.96 ± 0.07 µM.

For `COc1ccc(OC)c(/C=C/C(=O)c2cc3ccc(OC)cc3oc2=O)c1` [ChC8, (E)-3-(3-(2,5-dimethoxyphenyl)acryloyl)-7-methoxy-2H-chromen-2-one], the IC50 at rMAO-A and against rMAO-B was above 10 µM each time.

Turning to `COc1ccc2cc(C(=O)/C=C/c3ccc4c(c3)OCO4)c(=O)oc2c1` [ChC9, (E)-3-(3-(benzo[d][1,3]dioxol-5-yl)acryloyl)-7-methoxy-2H-chromen-2-one], the IC50 at rMAO-A is above 10 µM; against rMAO-B, 3.71 ± 0.68 µM.

On to `COc1ccc2cc(C(=O)/C=C/c3ccc(O)c(OC)c3)c(=O)oc2c1` [ChC10], for which, at rMAO-A, the IC50 is above 10 µM. Moreover, on rMAO-B, the “rMAO-B inhibitory activity in vitro (in words)” value was “loss of the inhibitory activity” and the IC50 was above 10 µM.

For the molecule `COc1ccc2cc(C(=O)/C=C/c3ccc(SC)cc3)c(=O)oc2c1` [ChC11], the IC50 against rMAO-A is above 10 µM; on rMAO-B it was 5.88 ± 0.57 µM.

`COc1ccc2cc(C(=O)/C=C/c3cc(Br)c(OC)c(Br)c3)c(=O)oc2c1` [ChC12, (E)-3-(3-(3,5-dibromo-4-methoxyphenyl)acryloyl)-7-methoxy-2H-chromen-2-one]: the IC50 against rMAO-A and at rMAO-B was above 10 µM throughout.

`COc1ccc2cc(C(=O)/C=C/c3ccc(N(C)C)cc3)c(=O)oc2c1` [ChC13, (E)-3-(3-(4-(dimethylamino)phenyl)acryloyl)-7-methoxy-2H-chromen-2-one]: the IC50 against rMAO-A and against rMAO-B was above 10 µM each time.

For the molecule `COc1ccc2cc(C(=O)/C=C/c3ccc(Br)cc3)c(=O)oc2c1` [ChC14, (E)-3-(3-(4-bromophenyl)acryloyl)-7-methoxy-2H-chromen-2-one], the IC50 against rMAO-A and at rMAO-B was above 10 µM in each case.

The values are drawn from publication PMC8122463, “Coumarin-Chalcone Hybrids as Inhibitors of MAO-B: Biological Activity and In Silico Studies” (Molecules, 2021).
